In the NIST ThermoML archive (doi:10.1016/j.jct.2013.08.010):

Test: mn = molality of the nth substance listed, in mol/kg
Conditions: 101 kPa, Liquid; for speed of sound: Sing-around technique in a fixed-path interferometer; for mass density: Vibrating tube method

NCC(=O)O [2-aminoacetic acid] + O
Conditions	mass density, 288.15 K [kg/m3]	mass density, 298.15 K [kg/m3]	mass density, 308.15 K [kg/m3]	mass density, 318.15 K [kg/m3]	speed of sound, 288.15 K [m/s]	speed of sound, 298.15 K [m/s]	speed of sound, 308.15 K [m/s]	speed of sound, 318.15 K [m/s]
m1 = 0.01207	999.51	997.439	994.412	990.513	1467.2	1497.7	1520	1537.2
m1 = 0.0523	1000.84	998.74	–	991.747	1470.1	1500.1	1522.9	1538.9
m1 = 0.1037	1002.52	1000.39	997.281	993.309	1472.3	1502.3	1524.7	1541.1
m1 = 0.2037	1005.77	1003.57	1000.37	996.317	1477.8	1507.2	1529.7	1545.8
m1 = 0.3068	1009.07	1006.8	1003.51	–	1483.4	1512.4	1534.6	1551.4
m1 = 0.4124	1012.4	1010.06	1006.68	1002.46	1488.7	1517.8	1539.7	1555.4
m1 = 0.5028	1015.22	1012.82	1009.36	1005.06	1494.5	1523	1543.8	1560.2
m1 = 0.6058	1018.38	1015.9	1012.35	1007.97	1499.2	1527.3	1548.7	1564.1
m1 = 0.6829	1020.71	1018.19	1014.55	1010.1	1503.4	1531.3	1552.5	1567.7
m1 = 0.82	1024.83	1022.23	1018.45	1013.89	1510.2	1537.7	1558.6	1573.5

CC(C)[C@H](N)C(=O)O [L-valine] + O
Conditions	mass density, 288.15 K [kg/m3]	mass density, 298.15 K [kg/m3]	mass density, 308.15 K [kg/m3]	mass density, 318.15 K [kg/m3]	speed of sound, 288.15 K [m/s]	speed of sound, 298.15 K [m/s]	speed of sound, 308.15 K [m/s]	speed of sound, 318.15 K [m/s]
m1 = 0.00555	999.264	997.195	994.174	990.28	1467.4	1497.5	1520.4	1537.1
m1 = 0.02398	999.773	997.685	994.647	990.74	1467.3	1497.4	1520.4	1537.4
m1 = 0.03504	1000.08	997.977	994.929	991.014	1469.7	1499.6	1522	1538.7
m1 = 0.05824	1000.71	998.588	995.518	991.588	1469.6	1499.7	1522.6	1539
m1 = 0.07873	1001.27	999.124	996.034	992.09	1472.8	1502.4	1525	1541.2
m1 = 0.09938	1001.83	999.658	996.551	992.593	1474.8	1504.4	1526.9	1542.7
m1 = 0.2068	1004.69	1002.41	999.213	995.181	1477	1506.2	1528.2	1544.4
m1 = 0.2992	1007.1	1004.73	1001.45	997.351	1488.4	1516.6	1537.8	1552.5
m1 = 0.4017	1009.7	1007.24	1003.87	999.709	1497.2	1524.8	1545.2	1560.4

C[C@H](N)C(=O)O [(S)-2-aminopropanoic acid] + O
Conditions	mass density, 288.15 K [kg/m3]	mass density, 298.15 K [kg/m3]	mass density, 308.15 K [kg/m3]	mass density, 318.15 K [kg/m3]	speed of sound, 288.15 K [m/s]	speed of sound, 298.15 K [m/s]	speed of sound, 308.15 K [m/s]	speed of sound, 318.15 K [m/s]
m1 = 0.00939	999.393	997.32	994.294	990.395	1467.6	1497.9	1520.8	1537
m1 = 0.04689	1000.52	998.405	995.339	991.404	1469.9	1499.8	1522.7	1539.2
m1 = 0.09896	1002.07	999.9	996.777	992.791	1472.8	1502.8	1525.5	1542
m1 = 0.2003	1005.04	1002.78	999.545	995.459	1480.3	1509.6	1531.8	1547.9
m1 = 0.2979	1007.86	1005.5	1002.16	997.981	1487.3	1515.9	1537.9	1553.2
m1 = 0.3997	1010.74	1008.28	1004.85	1000.56	1494.3	1522.7	1544	1558.7
m1 = 0.4941	1013.38	1010.81	1007.28	1002.91	1500.3	1528	1549	1564.1
m1 = 0.6099	1016.55	1013.87	1010.22	1005.75	1509.5	1536.7	1556.8	1571.4
m1 = 0.6973	1018.88	1016.12	1012.38	1007.84	1513.3	1540.4	1560.7	1574.7
m1 = 0.7978	1021.55	1018.68	1014.85	1010.19	1520	1546.2	1566	1580.9
